From patent US7087622B2, “Pyridone compounds as inhibitors of bacterial type III protein secreation systems” (priority 2004, dated 2006) come the findings set out here.

What all share (format): cell-based
The test system of assay [1] is SPI1 type III protein secretion system (SipB secretion). The assay is described as follows: Secondary assay: Type III-dependent protein secretion of the SipB polypeptide by S. enterica (immunoblot). To be noted: Salmonella enterica, read-out: SipB IC50(uM). How it is done: Secondary assay: Type III-dependent protein secretion of the SipB polypeptide by S. enterica. The SipB protein of S. enterica is another effector of the SPI1 type III protein secretion system from S. enterica. In this cell-based procedure, the Type III-dependent secretion of SipB from the bacterial cytoplasm to the extracellular medium was measured through its reactivity with a cognate mouse monoclonal.
Salmonella enterica cells growing either in the presence or in the absence of inhibitors are induced for the production of SipB. Following an established period of growth the cells are sedimented and the amount of SipB present in the supernatant is quantified with a scanning imager following application of immunoblot techniques. Detection may employ an anti-SipB mouse monoclonal antibody (e.g., obtained from Jorge Galan, SUNY at Stony Brook, N.Y.) followed by treatment with commercially available sheep anti-mouse polyclonal antibody conjugated with horseradish peroxidase. Thereafter the membrane is treated with a peroxidase chemiluminescent substrate and exposed to film for an appropriate exposure time. Inhibition may be measured relative to untreated controls.
On the technique in general: In western blotting, separated proteins are transferred to a membrane and probed.

Assay [2] deals with type III protein secretion system of P. aeruginosa PA103 (ExoU secretion). Description: Tertiary assay: Type III-dependent secretion of ExoU by P. aeruginosa PA103 (SDS-PAGE band quantitation). To be noted: Pseudomonas aeruginosa, ExoU secreted into extracellular medium. An excerpt:
Tertiary assay: inhibition of Type III protein secretion of effectors from a Pseudomonas aeruginosa system. Type III protein secretion is used by P. aeruginosa to secrete several essential virulence determinants. One effector of the type III protein secretion system of P. aeruginosa PA103 is the virulence determinants ExoU.
The amount of Type III-dependent secretion of ExoU by P. aeruginosa PA103 can be determined in a cell-based assay by quantification of the 73.9 kDa ExoU protein secreted into the extracellular medium. Such quantitation can be achieved by growing strain PA103 in a deferrated medium in the presence of nitrilotriacetic acid (an inducer of Type III protein secretion in P. aeruginosa) and either in the presence or absence of putative inhibitors. After a prolonged growth period, the cells are sedimented and the supernatants concentrated by ammonium sulfate precipitation. The proteins in the resuspended pellets are separated by electrophoresis on SDS-polyacrylamide gels. After staining gels with Colloidal Blue™, the 73.9 kDa ExoU band is quantitated by scanning through an imager. The effects of inhibitors on the intensity of the ExoU band may be measured relative to that of untreated controls.

Assay [3] deals with SPI1 type III protein secretion system (SopE-Bla secretion). Description: Primary assay: Type III protein secretion of the chimeric SopE-Bla polypeptide by Salmonella enterica (nitrocefin hydrolysis). To be noted: read-out: SopE IC50(uM). An excerpt:
Primary assay: Type III protein secretion of the chimeric SopÉ-Bla polypeptide by Salmonella enterica. This procedure is a cell-based assay that measures the type III-dependent secretion by Salmonella enterica of a plasmid-encoded chimeric polypeptide whose synthesis can be regulated, and which is endowed with an enzymatic activity that can be monitored calorimetrically by hydrolysis of a substrate that is unable to penetrate into the bacterial cytoplasm within the time constraints of the reaction. Thus, the colorimetric reaction is not influenced by SopÉ-Bla polypeptide in the bacterial cytoplasm. Instead, it effectively measures the amount of polypeptide that has been secreted from the S. enterica cytoplasm to the extracellular medium via type III system protein secretion.
The SopÉ-Bla recombinant polypeptide consists of two functionally distinct domains spliced together. The N-terminus domain is encoded by a polynucleotide region specifying the signal for type III secretion of the SopE polypeptide of S. enterica, an effector of the SPI1 type III protein secretion system. The C-terminus domain of SopÉ-Bla consists of a 263 amino acid peptide sequence that corresponds to the TEM-1 β-lactamase expressed by plasmid pBR322 but without its N-terminal signal sequence. The TEM-1 β-lactamase part of the SopÉ-Bla chimeric polypeptide is used as a reporter enzyme. It is capable of hydrolyzing nitrocefin resulting in a product whose accumulation can be monitored by colorimetric detection. The secretion of the SopÉ-Bla chimeric polypeptide from the cytoplasm to the extracellular medium is dependent on type III protein secretion.
For this procedure, cells grown under conditions known to favor a functional SPI1 secretion system are induced for expression of the SopÉ-Bla protein and grown either in the presence or in the absence of putative inhibitors for determined time. Nitrocefin is then added to the various cultures and its hydrolysis are used for quantitation. An inhibitor of Type III protein secretion is generally a compound that reduces the signal of the enzymatic reaction by decreasing the amount of SopÉ-Bla secreted into the extracellular medium.

`O=C(Nc1cc(-c2ccc(Cl)c(Cl)c2)cn(C(Cc2ccc(Cl)cc2)C(=O)O)c1=O)c1ccc(-c2ccccc2)cc1` (stereo not drawn) [Compound 34, 2-[3-[(Biphenyl-4-carbonyl)amino]-5-(3,4-dichlorophenyl)-2-oxo-2H-pyridin-1-yl]-3-(4-chlorophenyl)propionic acid]: the results for the IC50 in assay [1], in assay [2] and in assay [3] were 24.8 µM, more than 100 µM and 8.7 µM, respectively.

As to `O=C(Nc1cc(-c2ccc(F)cc2)cn(C(Cc2ccc(Cl)cc2)C(=O)O)c1=O)c1ccc(-c2ccccc2)cc1` (stereo not drawn) [Compound 35, 2-[3-[(Biphenyl-4-carbonyl)amino]-5-(4-fluorophenyl)-2-oxo-2H-pyridin-1-yl]-3-(4-chlorophenyl)propionic acid], the IC50 (commonly the concentration that gives 50% inhibition) in assay [1] turned out to be 58.4 µM; in assay [2], 7.5 µM; in assay [3], 2.3 µM.

For `O=C(Nc1cc(-c2ccc(C(F)(F)F)cc2)cn(C(Cc2ccc(Cl)cc2)C(=O)O)c1=O)c1ccc(-c2ccccc2)cc1` (stereo not drawn) [Compound 38, 2-[3-[(Biphenyl-4-carbonyl)amino]-2-oxo-5-(4-trifluoromethylphenyl)-2H-pyridin-1-yl]-3-(4-chlorophenyl)propionic acid], the IC50 in assay [1] was determined as 3.1 µM; in assay [2], 21.3 µM; in assay [3], 1.2 µM.

Consider `O=C(Nc1cc(-c2ccc(O)cc2)cn(C(Cc2ccc(Cl)cc2)C(=O)O)c1=O)c1ccc(-c2ccccc2)cc1` (stereo not drawn) [Compound 39, 2-[3-[(Biphenyl-4-carbonyl)amino]-5-(4-hydroxyphenyl)-2-oxo-2H-pyridin-1-yl]-3-(4-chlorophenyl)propionic acid], for which the results for the IC50 in assay [1], in assay [2] and in assay [3] were more than 100 µM, 80.5 µM and 3.6 µM, respectively.

On to `CN(C)c1ccc(-c2cc(NC(=O)c3ccc(-c4ccccc4)cc3)c(=O)n(C(Cc3ccc(Cl)cc3)C(=O)O)c2)cc1` (stereo not drawn) [Compound 40, 2-[3-[(Biphenyl-4-carbonyl)amino]-5-(4-dimethylaminophenyl)-2-oxo-2H-pyridin-1-yl]-3-(4-chlorophenyl)propionic acid], for which the IC50 in assay [1] amounted to 10.2 µM; in assay [2], 56.4 µM; in assay [3], 2.8 µM.

On to `COc1ccc(-c2cc(NC(=O)c3ccc(-c4ccccc4)cc3)c(=O)n(C(Cc3ccc(Cl)cc3)C(=O)O)c2)cc1OC` (stereo not drawn) [Compound 41, 2-[3-[(Biphenyl-4-carbonyl)amino]-5-(3,4-dimethoxyphenyl)-2-oxo-2H-pyridin-1-yl]-3-(4-chlorophenyl)propionic acid], for which the IC50 stood at 15.9 µM in assay [1], 67.4 µM in assay [2] and 3.2 µM in assay [3].

Turning to `O=C(Nc1cc(-c2ccc3ccccc3c2)cn(C(Cc2ccc(Cl)cc2)C(=O)O)c1=O)c1ccc(-c2ccccc2)cc1` (stereo not drawn) [Compound 42, 2-{3-[(Biphenyl-4-carbonyl)amino]-5-naphthalen-2-yl-2-oxo-2H-pyridin-1-yl}-3-(4-chlorophenyl)propionic acid], the IC50 in assay [1] is 76.2 µM; in assay [2], 41.3 µM; in assay [3], 1.1 µM.

With `O=C(Nc1cc(-c2ccc3[nH]ccc3c2)cn(C(Cc2ccc(Cl)cc2)C(=O)O)c1=O)c1ccc(-c2ccccc2)cc1` (stereo not drawn) [Compound 43, 2-[3-[(Biphenyl-4-carbonyl)amino]-5-(1H-indol-5-yl)-2-oxo-2H-pyridin-1-yl]-3-(4-chlorophenyl)propionic acid], the values for the IC50 in assay [1], in assay [2] and in assay [3] were more than 100 µM, 28 µM and 1.9 µM, respectively.

Regarding `O=C(Nc1cc(-c2ccsc2)cn(C(Cc2ccc(Cl)cc2)C(=O)O)c1=O)c1ccc(-c2ccccc2)cc1` (stereo not drawn) [Compound 44, 2-{3-[(Biphenyl-4-carbonyl)amino]-2-oxo-5-thiophen-3-yl-2H-pyridin-1-yl}-3-(4-chlorophenyl)propionic acid], the IC50 is more than 100 µM in assay [1], more than 100 µM in assay [2] and 2.8 µM in assay [3].

As for `O=C(Nc1cc(-c2ccoc2)cn(C(Cc2ccc(Cl)cc2)C(=O)O)c1=O)c1ccc(-c2ccccc2)cc1` (stereo not drawn) [Compound 45, 2-{3-[(Biphenyl-4-carbonyl)amino]-5-furan-3-yl-2-oxo-2H-pyridin-1-yl}-3-(4-chlorophenyl)propionic acid], the figures for the IC50 in assay [1], in assay [2] and in assay [3] were more than 100 µM, 49.4 µM and 4 µM, respectively.

Consider `O=C(Nc1cc(-c2ccc(-c3ccccc3)cc2)cn(C(Cc2ccc(Cl)cc2)C(=O)O)c1=O)c1ccc(-c2ccccc2)cc1` (stereo not drawn) [Compound 47, 2-{3-[(Biphenyl-4-carbonyl)amino]-5-biphenyl-4-yl-2-oxo-2H-pyridin-1-yl}-3-(4-chlorophenyl)propionic acid], for which the IC50 in assay [1] was found to be 55 µM; in assay [2], 39.4 µM; in assay [3] it was 1.4 µM.

Consider `O=C(Nc1cc(-c2ccc(Oc3ccccc3)cc2)cn(C(Cc2ccc(Cl)cc2)C(=O)O)c1=O)c1ccc(-c2ccccc2)cc1` (stereo not drawn) [Compound 48, 2-[3-[(Biphenyl-4-carbonyl)amino]-2-oxo-5-(4-phenoxyphenyl)-2H-pyridin-1-yl]-3-(4-chlorophenyl)propionic acid], for which the IC50 amounted to 35 µM in assay [1], 33.2 µM in assay [2] and 1.2 µM in assay [3].

`O=C(Nc1cc(-c2ccccc2Oc2ccccc2)cn(C(Cc2ccc(Cl)cc2)C(=O)O)c1=O)c1ccc(-c2ccccc2)cc1` (stereo not drawn) [Compound 49, 2-[3-[(Biphenyl-4-carbonyl)amino]-2-oxo-5-(2-phenoxyphenyl)-2H-pyridin-1-yl]-3-(4-chlorophenyl)propionic acid]: the IC50 in assay [1] is 48 µM; in assay [2], 46.3 µM; in assay [3], less than 0.8 µM.

Consider `O=C(Nc1cc(-c2cccs2)cn(C(Cc2ccc(Cl)cc2)C(=O)O)c1=O)c1ccc(-c2ccccc2)cc1` (stereo not drawn) [Compound 50, 2-{3-[(Biphenyl-4-carbonyl)amino]-2-oxo-5-thiophen-2-yl-2H-pyridin-1-yl}-3-(4-chlorophenyl)propionic acid], for which the IC50 in assay [1] turned out to be 27 µM; in assay [2] it was 51.4 µM; in assay [3], 6.4 µM.

Consider `O=C(Nc1cc(-c2ccc(F)cc2)cn(C(Cc2ccc(Cl)cc2)C(=O)O)c1=O)c1ccc(Oc2ccccc2)cc1` (stereo not drawn) [Compound 51, 3-(4-Chlorophenyl)-2-[5-(4-fluorophenyl)-2-oxo-3-(4-phenoxybenzoylamino)-2H-pyridin 1-yl]propionic acid], for which the IC50 in assay [1] is more than 100 µM; in assay [2] it was more than 100 µM; in assay [3], 4.9 µM.

As for `CN(C)c1ccc(-c2cc(NC(=O)c3ccc(Oc4ccccc4)cc3)c(=O)n(C(Cc3ccc(Cl)cc3)C(=O)O)c2)cc1` (stereo not drawn) [Compound 53, 3-(4-Chlorophenyl)-2-[5-(4-dimethylaminophenyl)-2-oxo-3-(4-phenoxy-benzoylamino)-2H-pyridin-1-yl]propionic acid], the results for the IC50 in assay [1], in assay [2] and in assay [3] were more than 100 µM, 49 µM and 3.6 µM, respectively.
